Assays:
[1] = Phase I trial, pharmacokinetics in plasma by LC/MS during cycle 1
Experimental: Pharmacokinetic (PK) studies were performed during cycle 1 using liquid chromatography/mass spectrometry (LC/MS) to measure both compounds in plasma. Heat shock protein 70 (Hsp70) was measured in plasma before and after treatment.

[2] = co-administered with Compound (1) 44-525 mg/m2

SMILES	PK linearity ([1]; Compound (1) 44-525 mg/m2, unaffected by paclitaxel dose)	serious effects specifically attributable to Compound (1) (35 patients, 8 dose levels, with paclitaxel)	Paclitaxel clearance, trend with Compound (1) dose [1, 2]	Paclitaxel terminal phase half-life, effect of Compound (1) dose [1, 2]	Paclitaxel dose limiting toxicities (in vivo)
CN(NC(=O)CC(=O)NN(C)C(=S)c1ccccc1)C(=S)c1ccccc1 [Compound (1)]	linear PK	No serious effects			
CC(=O)O[C@H]1C(=O)[C@@]2(C)[C@H]([C@H](OC(=O)c3ccccc3)[C@]3(O)C[C@H](OC(=O)[C@H](O)[C@@H](NC(=O)c4ccccc4)c4ccccc4)C(C)=C1C3(C)C)[C@]1(OC(C)=O)CO[C@@H]1C[C@@H]2O [Paclitaxel, paclitaxel]			significant trend toward decreasing clearance	without affecting the terminal phase half-life	occurred in a single patient in each of the top three dose levels

Reference: patent publication US8017654B2, “Combination cancer therapy with bis(thiohydrazide) amide compounds” (priority 2005, dated 2011)
